The numbers were not newly measured in PMC4304654 (Bioorganic & medicinal chemistry, 2012), which cites them from elsewhere.

Each structure is given as a SMILES string. Converted amounts (≈) assume the structure as drawn.

For series [1] the following is noted: mice, 1 h after 5 mg/kg i.p.; previously reported data ref 7; cited from earlier work.
The conditions of series [2]: mouse plasma; previously reported data ref 7; cited from earlier work.
Series [3] addresses K18 tau fragment (amino acids 244–369) bearing the P301L mutation (K18PL) (Homo sapiens, UniProt P10636, P618L). To be noted: 50 μM compound concentration; previously reported data ref 7; cited from earlier work.
For series [4] the following is noted: cited from earlier work.
For series [5] the following is noted: cited from earlier work. The source holds these as a separate data set.

Chain of K18 tau fragment (amino acids 244–369) bearing the P301L mutation (K18PL) (P10636 561-686 P618L): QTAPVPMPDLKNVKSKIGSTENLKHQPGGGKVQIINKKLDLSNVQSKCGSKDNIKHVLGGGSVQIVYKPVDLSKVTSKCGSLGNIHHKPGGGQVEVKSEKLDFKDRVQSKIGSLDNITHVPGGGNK

Consider `Nc1scc2c(C(=O)NC3CC3)nn(-c3ccc(Cl)cc3)c(=O)c12` [Compound 1, 5-Amino-3-(4-chlorophenyl)-N-cyclopropyl-4-oxo-3,4-dihydrothieno[3,4-d]pyridazine-1-carboxamide], for which, in series [1], the “B/P (fu), ratio of free drug in brain and plasma” value is on record as 0.92 ±0.16; the “B/P (total), brain-to-plasma ratio” value is recorded as 1.61 ± 0.28; the Brain level is 1300 ± 110 ng/g; the Plasma level was 820 ± 150 ng/mL. In addition, in series [2], the “Fu (%) plasma, fraction unbound” value is reported as 1.9 ± 0.2%. The “K18PL centrifugation assay % Soluble” value in series [3] is 69%. In addition, the “Bound in brain homogenates” value in series [4] (equilibrium dialysis) is ~ 99%. Further, in series [4] (mouse brain homogenate, previously reported data ref 7), the “Fu (%) brain, fraction unbound” value is recorded as 1.1 ± 0.6%. Moreover, in series [5] (sodium acetate fibrillization assay buffer, previously reported data ref 7), the “Solubility in assay buffer, upper solubility limit” value was 32 µM (≈ 11.5 µg/mL). Besides, in series [5] (text of introduction), the Water solubility is on record as ~ 30 μM.
